In article PMC10987480, “Biological and mutational analyses of CXCR4–antagonist interactions and design of new antagonistic analogs” (Bioscience Reports, 2023):
Positions of bridges follow the written chain, without caps; N, C: chain ends. Non-standard residues stand in square brackets, D forms with d. Residues, ends and D or L forms follow the SMILES beside them. Chains are numbered I, II in the order given. 2Nal = N[C@@H](Cc1ccc2ccccc2c1)C(=O)O; Lys(iPr) = CC(C)NCCCC[C@H](N)C(=O)O

Tests used:
CXCR4 I284A = target: T1, CXCR4 I284A (Homo sapiens, UniProt P61073, I284A); assay: Competitive binding to CXCR4 mutant I284A (12G5, CHO cells); conditions: TM7, class of reduction vs wild-type CXCR4, 12G5 competition, averages of at least three independent experiments
T1 construct: expressed in transfected cells
Description: (§1) Plasmid pcDNA3-CXCR4 and mutated pcDNA3-CXCR4 were extracted and transfected into CHO cells using Lipofectamine 2000 according to the manufacturer’s guidelines. The selective medium containing G418 at a concentration of 1.2 mg/ml was applied to isolate stably transfected cells. CHO cells expressing wild-type CXCR4 and mutant CXCR4 were obtained using fluorescence-activated cell sorting (FACS).
(§2) All of the CXCR4 mutants were prepared using PCR technology. Briefly, pairs of asymmetrical primers containing the desired amino acid mutations (Supplementary Tables S1 and S2), each complementary to opposite strands of the pcDNA3–CXCR4, were designed for amplification by Q5® High-Fidelity DNA polymerase and the generation of mutated constructs. The methylated pcDNA3–CXCR4 templates were digested by DpnI. The mutated pcDNA3–CXCR4 was transformed into competent E. coli TOP10 for long-term storage and amplification.
(§3) The procedure for the CXCR4 competitive binding experiments was published previously. Briefly, CXCR4 antibody 12G5 (250 ng/ml) was incubated with 5 × 10^5 cells and varying concentrations of unlabeled compounds in a final volume of 100 μl of assay buffer (PBS with 0.5% BSA and 0.05% NaN3) in 96-well plates for 40 min on ice, after being washed with assay buffer once. The cells were incubated with FITC-conjugated second antibody IgG for 30 min on ice, then washed with assay buffer three times. The fluorescence intensity was measured for excitation at 485 nm and emission at 535 nm using multimode plate reader (PerkinElmer). The IC50 values were calculated using graphpad Prism 7. Experiments were performed at least three times.

CXCR4 D97A = target: T2, CXCR4 D97A (Homo sapiens, UniProt P61073, D97A); assay: Competitive binding to CXCR4 mutant D97A (12G5, CHO cells); conditions: TM2, class of reduction vs wild-type CXCR4, 12G5 competition, averages of at least three independent experiments
T2 construct: expressed in transfected cells
Description: as §1, §2, §3

CXCR4 D193A = target: T3, CXCR4 D193A (Homo sapiens, UniProt P61073, D193A); assay: Competitive binding to CXCR4 mutant D193A (12G5, CHO cells); conditions: TM4, class of reduction vs wild-type CXCR4, 12G5 competition, averages of at least three independent experiments
T3 construct: expressed in transfected cells
Description: as §1, §2, §3

CXCR4 D262E = target: T4, CXCR4 D262E (Homo sapiens, UniProt P61073, D262E); assay: Competitive binding to CXCR4 mutant D262E (12G5, CHO cells); conditions: TM6, class of reduction vs wild-type CXCR4, 12G5 competition, averages of at least three independent experiments
T4 construct: expressed in transfected cells
Description: as §1, §2, §3

CXCR4 [1] = target: T5, CXCR4 (Homo sapiens, UniProt P61073); assay: SDF-1α-induced cell migration assay in SupT1 cells (transwell); type: cell-based; design: host or cells: SupT1 cells; conditions: 2 nM SDF-1α, 30 min pre-incubation, 3 h migration
Description: (§4) Figure 2 The inhibitory effect of the antagonists on SDF-1α-induced cell chemotaxis and calcium mobilization in SupT1 cells The antagonists and concentrations used were labeled in each lane. (A) The inhibition of cell migration by the noted antagonists. SupT1 cells pre-treated with or without CXCR4 antagonists were seeded in the upper well and cell migrated by 2 nM SDF-1α. Migrated cells without SDF-1α were used as a negative (0%) and migrated cell induced by SDF-1α as a positive control (100%). […] SupT1 cells were treated with or without CXCR4 antagonists and activated by 50 nM SDF-1α. To directly compare the inhibitory effect of the antagonists on calcium mobilization, the vehicle background and baseline were removed using GraphPad and Origin. The data were averages of at least three independent experiments.
SupT1 cells (2 × 10^6 cells per well in 75 μl) were collected and washed using assay buffer (RPMI 1640 supplemented with 0.5% BSA) and incubated with various concentrations of tested compounds for 30 min in the upper well of the transwell-96 well plates with 5.0 µm pore polycarbonate membrane insert (Corning, U.S.A.). Then, 200 μl assay buffer containing 2 nM SDF-1α was added to the lower well and cells were allowed to migrate for 3 h. Migrated cells were measured using celltiter-96 reagent.

CXCR4 R30A = target: T6, CXCR4 R30A (Homo sapiens, UniProt P61073, R30A); assay: Competitive binding to CXCR4 mutant R30A (12G5, CHO cells); design: key to the marks not given beside the values; conditions: TM1, class of reduction vs wild-type CXCR4, 12G5 competition, averages of at least three independent experiments
T6 construct: expressed in transfected cells
Description: as §1, §2, §3

CXCR4 H281A = target: T7, CXCR4 H281A (Homo sapiens, UniProt P61073, H281A); assay: Competitive binding to CXCR4 mutant H281A (12G5, CHO cells); conditions: TM7, class of reduction vs wild-type CXCR4, 12G5 competition, averages of at least three independent experiments
T7 construct: expressed in transfected cells
Description: as §1, §2, §3

CXCR4 Y256A = target: T8, CXCR4 Y256A (Homo sapiens, UniProt P61073, Y256A); assay: Competitive binding to CXCR4 mutant Y256A (12G5, CHO cells); conditions: TM6, class of reduction vs wild-type CXCR4, 12G5 competition, averages of at least three independent experiments
T8 construct: expressed in transfected cells
Description: as §1, §2, §3

CXCR4 V112A = target: T9, CXCR4 V112A (Homo sapiens, UniProt P61073, V112A); assay: Competitive binding to CXCR4 mutant V112A (12G5, CHO cells); conditions: TM3, class of reduction vs wild-type CXCR4, 12G5 competition, averages of at least three independent experiments
T9 construct: expressed in transfected cells
Description: as §1, §2, §3

CXCR4 H113A = target: T10, CXCR4 H113A (Homo sapiens, UniProt P61073, H113A); assay: Competitive binding to CXCR4 mutant H113A (12G5, CHO cells); conditions: TM3, class of reduction vs wild-type CXCR4, 12G5 competition, averages of at least three independent experiments
T10 construct: expressed in transfected cells
Description: as §1, §2, §3

CXCR4 W252A = target: T11, CXCR4 W252A (Homo sapiens, UniProt P61073, W252A); assay: Competitive binding to CXCR4 mutant W252A (12G5, CHO cells); conditions: TM6, class of reduction vs wild-type CXCR4, 12G5 competition, averages of at least three independent experiments
T11 construct: expressed in transfected cells
Description: as §1, §2, §3

CXCR4 [2] = target: T5, CXCR4; assay: SDF-1α-induced calcium mobilization assay in SupT1 cells (Fluo-4); type: cell-based; design: host or cells: SupT1 cells; conditions: 50 nM SDF-1α
Description: as §4
SupT1 cells were collected and washed using HHBS buffer (Hanks’ Balanced Salt solution supplemented with 20 mM HEPES) and incubated with 1 mM probenecid (Energy Chemical, China) and 4 μM Fluo-4 (AAT bioquest, U.S.A.) for 37°C for 30 min with vortex every 5 min. After being washed with HHBS, cells were suspended in PBS at 2 × 10^6/ml and seeded 200 μl cells and various concentrations of compounds per well in 96-well plate. Following 50 nM SDF-1α was added to each well, the fluorescence intensity was measured (Ex/Em = 496/516 nm) using EnSpire® multimode plate reader (PerkinElmer, U.S.A.).

CXCR4 W161A = target: T12, CXCR4 W161A (Homo sapiens, UniProt P61073, W161A); assay: Competitive binding to CXCR4 mutant W161A (12G5, CHO cells); conditions: TM4, class of reduction vs wild-type CXCR4, 12G5 competition, averages of at least three independent experiments
T12 construct: expressed in transfected cells
Description: as §1, §2, §3

CXCR4 H203A = target: T13, CXCR4 H203A (Homo sapiens, UniProt P61073, H203A); assay: Competitive binding to CXCR4 mutant H203A (12G5, CHO cells); conditions: TM5, class of reduction vs wild-type CXCR4, 12G5 competition, averages of at least three independent experiments
T13 construct: expressed in transfected cells
Description: as §1, §2, §3

CXCR4 Y255A = target: T14, CXCR4 Y255A (Homo sapiens, UniProt P61073, Y255A); assay: Competitive binding to CXCR4 mutant Y255A (12G5, CHO cells); conditions: TM6, class of reduction vs wild-type CXCR4, 12G5 competition, averages of at least three independent experiments
T14 construct: expressed in transfected cells
Description: as §1, §2, §3

T5 sequence (P61073 whole entry): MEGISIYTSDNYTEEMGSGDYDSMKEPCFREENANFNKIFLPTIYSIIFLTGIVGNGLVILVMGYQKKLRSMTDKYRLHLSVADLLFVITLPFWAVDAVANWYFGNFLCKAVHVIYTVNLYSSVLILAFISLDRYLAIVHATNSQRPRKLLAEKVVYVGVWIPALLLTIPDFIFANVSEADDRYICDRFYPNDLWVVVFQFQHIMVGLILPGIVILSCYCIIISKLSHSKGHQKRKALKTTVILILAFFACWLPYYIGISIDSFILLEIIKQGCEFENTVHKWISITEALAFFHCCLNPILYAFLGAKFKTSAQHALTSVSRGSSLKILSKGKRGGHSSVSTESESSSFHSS
T6 sequence (P61073 whole entry R30A): as the sequence (P61073 whole entry) above, with R30A counted along it
T2 sequence (P61073 whole entry D97A): as the sequence (P61073 whole entry) above, with D97A counted along it
T4 sequence (P61073 whole entry D262E): as the sequence (P61073 whole entry) above, with D262E counted along it
T11 sequence (P61073 whole entry W252A): as the sequence (P61073 whole entry) above, with W252A counted along it
T12 sequence (P61073 whole entry W161A): as the sequence (P61073 whole entry) above, with W161A counted along it
T9 sequence (P61073 whole entry V112A): as the sequence (P61073 whole entry) above, with V112A counted along it
T13 sequence (P61073 whole entry H203A): as the sequence (P61073 whole entry) above, with H203A counted along it
T7 sequence (P61073 whole entry H281A): as the sequence (P61073 whole entry) above, with H281A counted along it
T10 sequence (P61073 whole entry H113A): as the sequence (P61073 whole entry) above, with H113A counted along it
T8 sequence (P61073 whole entry Y256A): as the sequence (P61073 whole entry) above, with Y256A counted along it
T1 sequence (P61073 whole entry I284A): as the sequence (P61073 whole entry) above, with I284A counted along it
T14 sequence (P61073 whole entry Y255A): as the sequence (P61073 whole entry) above, with Y255A counted along it
T3 sequence (P61073 whole entry D193A): as the sequence (P61073 whole entry) above, with D193A counted along it

inhibition at 0.4 µM (CXCR4 [1]; SUP-T1, at 400 nM) [%] | Inhibition of calcium mobilization (in words) (CXCR4 [2]; single concentration (Figure 2B)) | SMILES | Competitive receptor binding activity, CXCR4 I284A (CXCR4 I284A) | Competitive receptor binding activity, CXCR4 D97A (CXCR4 D97A) | Competitive receptor binding activity, CXCR4 D193A (CXCR4 D193A) | Competitive receptor binding activity, CXCR4 D262E (CXCR4 D262E) | inhibition at 4 µM (CXCR4 [1]; SUP-T1, at 4 μM) [%] | Competitive receptor binding activity, CXCR4 R30A (CXCR4 R30A) | Competitive receptor binding activity, CXCR4 H281A (CXCR4 H281A) | Competitive receptor binding activity, CXCR4 Y256A (CXCR4 Y256A) | Competitive receptor binding activity, CXCR4 V112A (CXCR4 V112A) | Competitive receptor binding activity, CXCR4 H113A (CXCR4 H113A) | Competitive receptor binding activity, CXCR4 W252A (CXCR4 W252A) | inhibition at 1 µM (CXCR4 [2]; SUP-T1, at 1 μM) [%] | Competitive receptor binding activity, CXCR4 W161A (CXCR4 W161A) | Competitive receptor binding activity, CXCR4 H203A (CXCR4 H203A) | Competitive receptor binding activity, CXCR4 Y255A (CXCR4 Y255A)
 |  | CC(C)C[C@@H](N)C(=O)NCC(=O)N[C@H](C)C(=O)N[C@H](CO)C(=O)N[C@H](Cc1c[nH]c2ccccc12)C(=O)N[C@H](Cc1c[nH]cn1)C(=O)N[C@H](CCCNC(=N)N)C(=O)N1CCC[C@@H]1C(=O)N[C@H](CC(=O)O)C(=O)N[C@H](CCCCN)C(=O)NCCCC[C@@H](NC(=O)[C@H]1CCCN1C(=O)[C@@H](CC(C)C)NC(=O)[C@H]1CCCN1C(=O)[C@@H](CCCNC(=N)N)NC(=O)[C@@H](CCCCN)NC(=O)[C@@H](CCC(N)=O)NC(=O)[C@@H](Cc1ccc(O)cc1)NC(=O)CNC(=O)[C@@H](CC(C)C)NC(=O)[C@@H](CS)NC(=O)[C@@H](CS)NC(=O)[C@@H](CCCCN)NC(=O)[C@@H](CC(=O)O)NC(=O)[C@H]1CCCN1C(=O)[C@@H](CCCNC(=N)N)NC(=O)[C@@H](Cc1c[nH]cn1)NC(=O)[C@@H](Cc1c[nH]c2ccccc12)NC(=O)[C@@H](CO)NC(=O)[C@@H](C)NC(=O)CNC(=O)[C@H](N)CC(C)C)C(=O)O [HC4319] (I: H-[dL]G[dA][dS][dW][dH][dR][dP][dD][dK][dC][dC][dL]G[dY][dQ][dK][dR][dP][dL][dP][dK]-OH / II: H-[dL]G[dA][dS][dW][dH][dR][dP][dD][dK]; amide I:22-II:C; N-terminus and C-terminus assumed) | +++ | ++ (10–29% reduction compared with wild-type CXCR4) | ++ (10–29% reduction compared with wild-type CXCR4) | ++ (10–29% reduction compared with wild-type CXCR4) | 56 | +++ | ++ (10–29% reduction compared with wild-type CXCR4) | +++ | +++ | ++ (10–29% reduction compared with wild-type CXCR4) | +++ | 77 | +++ | +++ | ++ (10–29% reduction compared with wild-type CXCR4)
76 | significant inhibition | CC(C)NCCCC[C@H](NC(=O)[C@H]1CCC(=O)N[C@@H](Cc2ccccc2)C(=O)N[C@@H](Cc2ccc(O)cc2)C(=O)N[C@@H](CCCCNC(C)C)C(=O)N[C@H](CCCNC(=N)N)C(=O)N[C@@H](Cc2ccc3ccccc3c2)C(=O)NCC(=O)N1)C(N)=O [LY2510924] (FY[Lys(iPr)][dR][2Nal]G[dE][Lys(iPr)]-NH2; lactam N-7 (inferred)) | ++ (10–29% reduction compared with wild-type CXCR4) | + (30–60% reduction compared with wild-type CXCR4) | +++ | ++ (10–29% reduction compared with wild-type CXCR4) |  | +++ | ++ (10–29% reduction compared with wild-type CXCR4) | ++ (10–29% reduction compared with wild-type CXCR4) | ++ (10–29% reduction compared with wild-type CXCR4) | + (30–60% reduction compared with wild-type CXCR4) | ++ (10–29% reduction compared with wild-type CXCR4) |  | ++ (10–29% reduction compared with wild-type CXCR4) | + (30–60% reduction compared with wild-type CXCR4) | ++ (10–29% reduction compared with wild-type CXCR4)
